For 9 molecules, GI50 and TGI results are on record in PubChem BioAssay (NCI).

Test systems include RPMI-8226 leukemia; MOLT-4 leukemia; MCF7 breast; OVCAR-4 ovarian; HCT-116 colon; MDA-MB-231 breast; NCI/ADR-RES ovarian; PC-3 prostate; SR leukemia; MDA-MB-435.
Common to all, as to assay: NCI-60 cell line screen, 48 h

Where “and” joins values, the source holds several entries; their conditions need not be identical. Identical values can stand only once.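 Compound exposure: 48 hours, 5 concentrations, 96-well plates. GI50: concentration for 50% inhibition of growth. The concentration for full growth arrest is given as TGI.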

For the molecule `CC#CC(=O)N1CCC[C@H]1c1nc(-c2ccc(C(=O)Nc3ccccn3)cc2)c2c(N)nccn12`, the GI50 in the experiment with RPMI-8226 leukemia was 59 µM; in the experiment with MOLT-4 leukemia, 44.3 µM; in the experiment on MCF7 breast, 58 µM; with OVCAR-4 ovarian, 58 µM; with HCT-116 colon it was greater than 76 µM; in the experiment on MDA-MB-231 breast it was 28.1 µM. Besides, the GI50 in the experiment with NCI/ADR-RES ovarian was greater than 100 µM; in the experiment with PC-3 prostate it was greater than 84.8 µM; in the experiment with SR leukemia, 43.8 µM; with MDA-MB-435, 44.1 µM. Further, the TGI with RPMI-8226 leukemia, in the experiment on MOLT-4 leukemia, in the experiment with MCF7 breast, with OVCAR-4 ovarian, in the experiment with HCT-116 colon and with MDA-MB-231 breast was greater than 100 µM in each case. In addition, the TGI with NCI/ADR-RES ovarian, in the experiment on PC-3 prostate, with SR leukemia and with MDA-MB-435 was greater than 100 µM throughout.

Consider `COc1ccc(/C=C2\COc3ccc(-c4ccccc4)cc3C2=O)cc1O`, for which the GI50 was 3.61 µM in the experiment on RPMI-8226 leukemia; 2.34 µM with MOLT-4 leukemia; 1.58 µM with MCF7 breast; 4.18 µM with OVCAR-4 ovarian; 1.72 µM in the experiment on HCT-116 colon; 3.98 µM with MDA-MB-231 breast. The GI50 in the experiment with NCI/ADR-RES ovarian was 3.39 µM; in the experiment with PC-3 prostate it was 3.41 µM; in the experiment on SR leukemia, 2 µM; in the experiment with MDA-MB-435, 2.03 µM. For the same molecule, the TGI is greater than 100 µM in the experiment on RPMI-8226 leukemia; 83.6 µM with MOLT-4 leukemia; 13 µM in the experiment on MCF7 breast; 30.8 µM in the experiment on OVCAR-4 ovarian; 3.53 µM with HCT-116 colon; 20.2 µM in the experiment with MDA-MB-231 breast. The TGI with NCI/ADR-RES ovarian was 14 µM; with PC-3 prostate, greater than 100 µM; in the experiment with SR leukemia, greater than 100 µM; with MDA-MB-435, 15.9 µM.

For the molecule `Cc1nc(NC(=O)N2CCC[C@H]2C(N)=O)sc1-c1ccnc(C(C)(C)C(F)(F)F)c1`, the GI50 with RPMI-8226 leukemia was 16.1 µM and > 10 µM; with MOLT-4 leukemia, 2.49 µM and 2.94 µM; in the experiment with MCF7 breast, 0.12 µM and 0.296 µM; in the experiment with OVCAR-4 ovarian, 13.3 µM and > 10 µM; with HCT-116 colon, 2.87 µM and 3.48 µM; in the experiment on MDA-MB-231 breast, 11.3 µM and > 10 µM. The GI50 in the experiment on NCI/ADR-RES ovarian was 14.6 µM and > 10 µM; in the experiment with PC-3 prostate, 2.19 µM and 3.61 µM; in the experiment with SR leukemia, 8.94 µM and > 10 µM; with MDA-MB-435, 7.33 µM and > 10 µM. The TGI in the experiment with RPMI-8226 leukemia was 58.5 µM and > 10 µM; in the experiment on MOLT-4 leukemia it was 28.2 µM and > 10 µM; with MCF7 breast, greater than 38.4 µM; in the experiment on OVCAR-4 ovarian it was greater than 75.3 µM; with HCT-116 colon it was greater than 87.3 µM; in the experiment on MDA-MB-231 breast, 32 µM and > 10 µM. Also, the TGI in the experiment on NCI/ADR-RES ovarian is 85.8 µM and > 10 µM; in the experiment on PC-3 prostate, 25.4 µM and > 10 µM; in the experiment on SR leukemia it was 44.1 µM and > 10 µM; with MDA-MB-435, 51.6 µM and > 10 µM.

As to `NC(CSC(c1ccccc1)(c1ccccc1)c1ccc2ccccc2c1)C(=O)O` (centres undefined), the GI50 is 0.0327 µM with RPMI-8226 leukemia; 0.29 µM in the experiment with MOLT-4 leukemia; 0.0321 µM in the experiment on MCF7 breast; 13.1 µM in the experiment with OVCAR-4 ovarian; 0.0312 µM in the experiment with HCT-116 colon; 0.0695 µM in the experiment with MDA-MB-231 breast. Besides, the GI50 is 0.989 µM in the experiment with NCI/ADR-RES ovarian, 0.0628 µM with PC-3 prostate, 0.0869 µM with SR leukemia and 0.018 µM with MDA-MB-435. The TGI with MOLT-4 leukemia was greater than 33.8 µM; in the experiment on MCF7 breast it was 21.9 µM; with OVCAR-4 ovarian, 33.2 µM; in the experiment on HCT-116 colon, 0.958 µM; in the experiment with MDA-MB-231 breast, 5 µM; in the experiment on NCI/ADR-RES ovarian, 3.64 µM. Further, the values for the TGI with PC-3 prostate, in the experiment on SR leukemia and in the experiment with MDA-MB-435 were greater than 82.7 µM, greater than 40.5 µM and 0.0363 µM, respectively.

On to `CCNCC(O)c1ccc(N)c([N+](=O)[O-])c1` (centres undefined), for which the TGI in the experiment on RPMI-8226 leukemia, with MOLT-4 leukemia, with MCF7 breast, with OVCAR-4 ovarian, in the experiment with HCT-116 colon and in the experiment on MDA-MB-231 breast was greater than 100 µM in each case. For the same molecule, the TGI with NCI/ADR-RES ovarian, in the experiment with PC-3 prostate, with SR leukemia and with MDA-MB-435 was greater than 100 µM throughout.

On to `O=C1/C(=C/c2cccs2)CCC/C1=C\c1cccs1`, for which the GI50 with RPMI-8226 leukemia is greater than 100 µM; in the experiment with MOLT-4 leukemia, greater than 100 µM; in the experiment with MCF7 breast it was 0.529 µM; with OVCAR-4 ovarian it was 14.6 µM; in the experiment with HCT-116 colon, greater than 100 µM; in the experiment with MDA-MB-231 breast, 44.6 µM. The GI50 with NCI/ADR-RES ovarian was 50.9 µM; with PC-3 prostate, 37.7 µM; in the experiment on SR leukemia it was greater than 94.9 µM; in the experiment on MDA-MB-435, greater than 100 µM. Besides, the TGI with RPMI-8226 leukemia was greater than 100 µM; in the experiment with MOLT-4 leukemia it was greater than 100 µM; with MCF7 breast it was greater than 100 µM; with OVCAR-4 ovarian, 45.2 µM; with HCT-116 colon, greater than 100 µM; with MDA-MB-231 breast, greater than 100 µM. Also, the TGI in the experiment with NCI/ADR-RES ovarian, with PC-3 prostate, with SR leukemia and in the experiment with MDA-MB-435 was greater than 100 µM each time.

Turning to `Oc1ccccc1-n1c(-c2ccccc2)ccc1-c1ccccc1`, the GI50 in the experiment on RPMI-8226 leukemia is 3.71 µM; with MOLT-4 leukemia, 3.81 µM; in the experiment with MCF7 breast it was 5.08 µM; with OVCAR-4 ovarian, 7.24 µM; in the experiment on HCT-116 colon, 4.71 µM; in the experiment with MDA-MB-231 breast it was 4.21 µM. Also, the GI50 in the experiment with NCI/ADR-RES ovarian is 5.13 µM; in the experiment on PC-3 prostate, 2.95 µM; in the experiment on SR leukemia it was 4.2 µM; with MDA-MB-435, 2.81 µM. In addition, the TGI was found to be 17.9 µM in the experiment on RPMI-8226 leukemia; 16.8 µM in the experiment on MOLT-4 leukemia; 16.5 µM in the experiment with MCF7 breast; 23.3 µM in the experiment on OVCAR-4 ovarian; 16.6 µM in the experiment with HCT-116 colon; 22.1 µM in the experiment on MDA-MB-231 breast. In addition, the TGI in the experiment with NCI/ADR-RES ovarian was determined as 23.1 µM; in the experiment on PC-3 prostate, 15.8 µM; with SR leukemia, 18 µM; with MDA-MB-435, 20.9 µM.

In the case of `CC1(C)OCN(c2ccc(Cl)cc2)Cn2c1nc1ccccc12`, the TGI in the experiment with RPMI-8226 leukemia, in the experiment with MOLT-4 leukemia, in the experiment on MCF7 breast, in the experiment with OVCAR-4 ovarian, in the experiment on HCT-116 colon and in the experiment on MDA-MB-231 breast was greater than 100 µM each time. Moreover, the TGI is greater than 100 µM in the experiment on NCI/ADR-RES ovarian, greater than 100 µM in the experiment with PC-3 prostate, 98.6 µM in the experiment with SR leukemia and greater than 100 µM in the experiment on MDA-MB-435.

Turning to `CC(=O)Oc1cccc2c1C(=O)c1c(OC(C)=O)cc(C)cc1C2=O`, the TGI with RPMI-8226 leukemia is 43.8 µM; with MOLT-4 leukemia, greater than 100 µM; with MCF7 breast it was greater than 100 µM; with OVCAR-4 ovarian it was greater than 100 µM; in the experiment with HCT-116 colon, greater than 100 µM; with MDA-MB-231 breast it was greater than 100 µM. Moreover, the TGI with NCI/ADR-RES ovarian, with PC-3 prostate, in the experiment with SR leukemia and in the experiment with MDA-MB-435 was greater than 100 µM throughout.
